Experimental data from patent US20090299044A1 (priority 2006, published 2009).
Bridge positions count the residues as written; N and C are the ends. Peptide text beside a SMILES is read from it.

Tests used:
human Kv1.3 (CHO) = target: T1, human Kv1.3 (CHO) (Homo sapiens, UniProt P22001); test: cell-based
T1 construct: expressed in transfected cells; host or cells: CHO

human Kv1.1 (HEK293) = target: T2, human Kv1.1 (HEK293) (Homo sapiens, UniProt Q09470); test: cell-based
T2 construct: expressed in transfected cells; host or cells: HEK293
T2 sequence (Q09470 whole entry): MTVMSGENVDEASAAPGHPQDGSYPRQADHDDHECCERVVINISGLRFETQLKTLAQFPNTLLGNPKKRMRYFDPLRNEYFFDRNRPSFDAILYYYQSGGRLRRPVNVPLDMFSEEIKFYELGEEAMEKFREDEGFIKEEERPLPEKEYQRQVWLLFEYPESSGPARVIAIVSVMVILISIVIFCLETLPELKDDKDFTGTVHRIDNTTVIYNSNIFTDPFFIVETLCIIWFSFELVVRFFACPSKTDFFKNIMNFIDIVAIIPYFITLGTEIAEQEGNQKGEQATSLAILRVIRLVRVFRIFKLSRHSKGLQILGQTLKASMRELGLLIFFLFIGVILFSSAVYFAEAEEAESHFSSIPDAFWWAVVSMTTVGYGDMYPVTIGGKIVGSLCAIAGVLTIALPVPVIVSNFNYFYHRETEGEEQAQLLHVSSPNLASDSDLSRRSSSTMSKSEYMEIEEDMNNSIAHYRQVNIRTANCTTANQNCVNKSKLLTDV

T1 sequence (P22001 whole entry): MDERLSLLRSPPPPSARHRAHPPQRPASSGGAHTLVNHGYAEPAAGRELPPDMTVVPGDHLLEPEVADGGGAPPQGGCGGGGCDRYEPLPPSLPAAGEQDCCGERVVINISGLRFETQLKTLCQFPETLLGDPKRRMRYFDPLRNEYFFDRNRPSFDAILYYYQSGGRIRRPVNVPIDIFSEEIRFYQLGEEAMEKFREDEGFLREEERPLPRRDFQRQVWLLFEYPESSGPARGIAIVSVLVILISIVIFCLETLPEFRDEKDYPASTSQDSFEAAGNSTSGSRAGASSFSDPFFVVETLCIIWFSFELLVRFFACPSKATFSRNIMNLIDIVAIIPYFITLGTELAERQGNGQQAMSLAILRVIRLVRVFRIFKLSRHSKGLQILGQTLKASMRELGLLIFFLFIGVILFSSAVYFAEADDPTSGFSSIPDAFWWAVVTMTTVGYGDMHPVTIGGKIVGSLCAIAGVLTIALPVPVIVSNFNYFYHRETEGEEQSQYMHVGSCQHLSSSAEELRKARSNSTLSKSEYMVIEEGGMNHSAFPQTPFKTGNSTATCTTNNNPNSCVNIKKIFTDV

**Q.** `CC[C@H](C)[C@@H]1NC(=O)[C@H](CCCCN)NC(=O)[C@@H](NC(=O)[C@H](CCCCN)NC(=O)[C@@H](NC(=O)[C@H](CC(N)=O)NC(=O)[C@@H](NC(=O)[C@@H](NC(=O)[C@H](CCCNC(=N)N)NC(=O)CN)[C@@H](C)CC)[C@@H](C)CC)C(C)C)CSSC[C@@H]2NC(=O)[C@H](CCCCN)NC(=O)CNC(=O)[C@H](Cc3ccccc3)NC(=O)[C@H](CCCNC(=N)N)NC(=O)[C@H](CCSC)NC(=O)CNC(=O)[C@H](C)NC(=O)[C@H](CCCCN)NC(=O)[C@H](CCCCN)NC(=O)[C@@H]3CSSC[C@@H](C(=O)N[C@H](C(=O)N4CCC[C@H]4C(=O)N[C@@H](CCCCN)C(=O)O)[C@@H](C)O)NC(=O)[C@H](Cc4c[nH]cn4)NC(=O)[C@H](CSSC[C@H](NC(=O)[C@H](CCC(N)=O)NC(=O)[C@H](CCCNC(=N)N)NC(=O)[C@H](CO)NC1=O)C(=O)N[C@@H](CC(C)C)C(=O)N[C@@H](CCC(=O)O)C(=O)N1CCC[C@H]1C(=O)N3)NC(=O)[C@H](CCCCN)NC(=O)CNC(=O)[C@H](CC(N)=O)NC(=O)[C@H](CCSC)NC2=O` [V2R] (H-GRIINVKCKISRQCLEPCKKAGMRFGKCMNGKCHCTPK-OH; disulfide 8-28, 14-33, 18-35) was tested. Which IC50 (human Kv1.3 (CHO)) did it give?
**A.** 133 pM

**Q.** What about the IC50 (human Kv1.1 (HEK293)) of the same molecule?
**A.** 25.8 pM

**Q.** With `CC[C@H](C)[C@@H]1NC(=O)[C@H](CCCCN)NC(=O)[C@@H](NC(=O)[C@H](CCCCN)NC(=O)[C@@H](NC(=O)[C@H](CC(N)=O)NC(=O)[C@@H](NC(=O)[C@@H](NC(=O)[C@@H](NC(=O)[C@@H](N)CCCNC(=N)N)C(C)C)[C@@H](C)CC)[C@@H](C)CC)C(C)C)CSSC[C@@H]2NC(=O)[C@H](CCCCN)NC(=O)CNC(=O)[C@H](Cc3ccccc3)NC(=O)[C@H](CCCNC(=N)N)NC(=O)[C@H](CCSC)NC(=O)CNC(=O)[C@H](C)NC(=O)[C@H](CCCCN)NC(=O)[C@H](CCCCN)NC(=O)[C@@H]3CSSC[C@@H](C(=O)N[C@H](C(=O)N4CCC[C@H]4C(=O)N[C@@H](CCCCN)C(=O)O)[C@@H](C)O)NC(=O)[C@H](Cc4c[nH]cn4)NC(=O)[C@H](CSSC[C@H](NC(=O)[C@H](CCC(N)=O)NC(=O)[C@H](CCCNC(=N)N)NC(=O)[C@H](CO)NC1=O)C(=O)N[C@@H](CC(C)C)C(=O)N[C@@H](CCC(=O)O)C(=O)N1CCC[C@H]1C(=O)N3)NC(=O)[C@H](CCCCN)NC(=O)CNC(=O)[C@H](CC(N)=O)NC(=O)[C@H](CCSC)NC2=O` [G1R] (H-RVIINVKCKISRQCLEPCKKAGMRFGKCMNGKCHCTPK-OH; disulfide 8-28, 14-33, 18-35) as the molecule, how does the IC50 (human Kv1.3 (CHO)) read?
**A.** 68.8 pM

**Q.** And the IC50 (human Kv1.1 (HEK293))?
**A.** 9.91 pM

**Q.** How did the IC50 (human Kv1.3 (CHO)) turn out when `CC[C@H](C)[C@@H]1NC(=O)[C@H](CCCCN)NC(=O)[C@@H](NC(=O)[C@H](CCCCN)NC(=O)[C@H](C)NC(=O)[C@H](CC(N)=O)NC(=O)[C@@H](NC(=O)[C@@H](NC(=O)[C@@H](NC(=O)CN)C(C)C)[C@@H](C)CC)[C@@H](C)CC)CSSC[C@@H]2NC(=O)[C@H](CCCCN)NC(=O)CNC(=O)[C@H](Cc3ccccc3)NC(=O)[C@H](CCCNC(=N)N)NC(=O)[C@H](CCSC)NC(=O)CNC(=O)[C@H](C)NC(=O)[C@H](CCCCN)NC(=O)[C@H](CCCCN)NC(=O)[C@@H]3CSSC[C@@H](C(=O)N[C@H](C(=O)N4CCC[C@H]4C(=O)N[C@@H](CCCCN)C(=O)O)[C@@H](C)O)NC(=O)[C@H](Cc4c[nH]cn4)NC(=O)[C@H](CSSC[C@H](NC(=O)[C@H](CCC(N)=O)NC(=O)[C@H](CCCNC(=N)N)NC(=O)[C@H](CO)NC1=O)C(=O)N[C@@H](CC(C)C)C(=O)N[C@@H](CCC(=O)O)C(=O)N1CCC[C@H]1C(=O)N3)NC(=O)[C@H](CCCCN)NC(=O)CNC(=O)[C@H](CC(N)=O)NC(=O)[C@H](CCSC)NC2=O` [V6A] (H-GVIINAKCKISRQCLEPCKKAGMRFGKCMNGKCHCTPK-OH; disulfide 8-28, 14-33, 18-35) was run?
**A.** 174 pM

**Q.** And the IC50 (human Kv1.1 (HEK293))?
**A.** 12.8 pM

**Q.** Which results are given for `CC[C@H](C)[C@@H]1NC(=O)[C@H](CCCCN)NC(=O)[C@@H](NC(=O)[C@H](CCCCN)NC(=O)[C@@H](NC(=O)[C@H](CC(N)=O)NC(=O)[C@@H](NC(=O)[C@@H](NC(=O)[C@@H](NC(=O)CN)C(C)C)[C@@H](C)CC)[C@@H](C)CC)C(C)C)CSSC[C@@H]2NC(=O)[C@H](CCCCN)NC(=O)CNC(=O)[C@H](Cc3ccccc3)NC(=O)[C@H](CCCNC(=N)N)NC(=O)[C@H](CCC(=O)O)NC(=O)CNC(=O)[C@H](C)NC(=O)[C@H](CCCCN)NC(=O)[C@H](CCCCN)NC(=O)[C@@H]3CSSC[C@@H](C(=O)N[C@H](C(=O)N4CCC[C@H]4C(=O)N[C@@H](CCCCN)C(=O)O)[C@@H](C)O)NC(=O)[C@H](Cc4c[nH]cn4)NC(=O)[C@H](CSSC[C@H](NC(=O)[C@H](CCC(N)=O)NC(=O)[C@H](CCCNC(=N)N)NC(=O)[C@H](CO)NC1=O)C(=O)N[C@@H](CC(C)C)C(=O)N[C@@H](CCC(=O)O)C(=O)N1CCC[C@H]1C(=O)N3)NC(=O)[C@H](CCCCN)NC(=O)CNC(=O)[C@H](CC(N)=O)NC(=O)[C@H](CCSC)NC2=O` [M23E] (H-GVIINVKCKISRQCLEPCKKAGERFGKCMNGKCHCTPK-OH; disulfide 8-28, 14-33, 18-35)?
**A.** IC50 (human Kv1.3 (CHO)): 24.3 pM; IC50 (human Kv1.1 (HEK293)): 10.4 pM

**Q.** For `CC[C@H](C)[C@@H]1NC(=O)[C@H](CCCCN)NC(=O)[C@@H](NC(=O)[C@H](CCCCN)NC(=O)[C@@H](NC(=O)[C@H](CC(N)=O)NC(=O)[C@@H](NC(=O)[C@@H](NC(=O)[C@@H](NC(=O)CN)C(C)C)[C@@H](C)CC)[C@@H](C)CC)C(C)C)CSSC[C@@H]2NC(=O)[C@H](CCCCN)NC(=O)CNC(=O)[C@H](Cc3ccccc3)NC(=O)[C@H](CCCNC(=N)N)NC(=O)[C@H](CCSC)NC(=O)CNC(=O)[C@H](C)NC(=O)[C@H](CCCCN)NC(=O)[C@H](CCCCN)NC(=O)[C@@H]3CSSC[C@@H](C(=O)N[C@@H](CCCNC(=N)N)C(=O)N4CCC[C@H]4C(=O)N[C@@H](CCCCN)C(=O)O)NC(=O)[C@H](Cc4c[nH]cn4)NC(=O)[C@H](CSSC[C@H](NC(=O)[C@H](CCC(N)=O)NC(=O)[C@H](CCCNC(=N)N)NC(=O)[C@H](CO)NC1=O)C(=O)N[C@@H](CC(C)C)C(=O)N[C@@H](CCC(=O)O)C(=O)N1CCC[C@H]1C(=O)N3)NC(=O)[C@H](CCCCN)NC(=O)CNC(=O)[C@H](CC(N)=O)NC(=O)[C@H](CCSC)NC2=O` [T36R] (H-GVIINVKCKISRQCLEPCKKAGMRFGKCMNGKCHCRPK-OH; disulfide 8-28, 14-33, 18-35), which IC50 (human Kv1.3 (CHO)) is on record?
**A.** 1310 pM

**Q.** What about the IC50 (human Kv1.1 (HEK293)) of the same molecule?
**A.** 26.6 pM

**Q.** Which results are given for `CC[C@H](C)[C@@H]1NC(=O)[C@H](CCCCN)NC(=O)[C@@H](NC(=O)[C@H](CCCCN)NC(=O)[C@@H](NC(=O)[C@H](CC(N)=O)NC(=O)[C@@H](NC(=O)[C@@H](NC(=O)[C@@H](NC(=O)CN)C(C)C)[C@@H](C)CC)[C@@H](C)CC)C(C)C)CSSC[C@@H]2NC(=O)[C@H](CCCCN)NC(=O)CNC(=O)[C@H](CCC(=O)O)NC(=O)[C@H](CCCNC(=N)N)NC(=O)[C@H](CCSC)NC(=O)CNC(=O)[C@H](C)NC(=O)[C@H](CCCCN)NC(=O)[C@H](CCCCN)NC(=O)[C@@H]3CSSC[C@@H](C(=O)N[C@H](C(=O)N4CCC[C@H]4C(=O)N[C@@H](CCCCN)C(=O)O)[C@@H](C)O)NC(=O)[C@H](Cc4c[nH]cn4)NC(=O)[C@H](CSSC[C@H](NC(=O)[C@H](CCC(N)=O)NC(=O)[C@H](CCCNC(=N)N)NC(=O)[C@H](CO)NC1=O)C(=O)N[C@@H](CC(C)C)C(=O)N[C@@H](CCC(=O)O)C(=O)N1CCC[C@H]1C(=O)N3)NC(=O)[C@H](CCCCN)NC(=O)CNC(=O)[C@H](CC(N)=O)NC(=O)[C@H](CCSC)NC2=O` [F25E] (H-GVIINVKCKISRQCLEPCKKAGMREGKCMNGKCHCTPK-OH; disulfide 8-28, 14-33, 18-35)?
**A.** IC50 (human Kv1.3 (CHO)): > 3330 pM; IC50 (human Kv1.1 (HEK293)): > 3330 pM

**Q.** What does the source list for `CC[C@H](C)[C@@H]1NC(=O)[C@H](CCCCN)NC(=O)[C@@H](NC(=O)[C@H](CCCCN)NC(=O)[C@@H](NC(=O)[C@H](CC(N)=O)NC(=O)[C@@H](NC(=O)[C@@H](NC(=O)[C@@H](NC(=O)CN)C(C)C)[C@@H](C)CC)[C@@H](C)CC)C(C)C)CSSC[C@@H]2NC(=O)[C@H](CCCCN)NC(=O)CNC(=O)[C@H](Cc3ccccc3)NC(=O)[C@H](CCCNC(=N)N)NC(=O)[C@H](CCSC)NC(=O)CNC(=O)[C@H](C)NC(=O)[C@H](CCCCN)NC(=O)[C@H](CCCNC(=N)N)NC(=O)[C@@H]3CSSC[C@@H](C(=O)N[C@H](C(=O)N4CCC[C@H]4C(=O)N[C@@H](CCCCN)C(=O)O)[C@@H](C)O)NC(=O)[C@H](Cc4c[nH]cn4)NC(=O)[C@H](CSSC[C@H](NC(=O)[C@H](CCC(N)=O)NC(=O)[C@H](CCCNC(=N)N)NC(=O)[C@H](CO)NC1=O)C(=O)N[C@@H](CC(C)C)C(=O)N[C@@H](CCC(=O)O)C(=O)N1CCC[C@H]1C(=O)N3)NC(=O)[C@H](CCCCN)NC(=O)CNC(=O)[C@H](CC(N)=O)NC(=O)[C@H](CCSC)NC2=O` [K19R] (H-GVIINVKCKISRQCLEPCRKAGMRFGKCMNGKCHCTPK-OH; disulfide 8-28, 14-33, 18-35)?
**A.** IC50 (human Kv1.3 (CHO)): 12.6 pM; IC50 (human Kv1.1 (HEK293)): 2.41 pM

**Q.** For `CC[C@H](C)[C@@H]1NC(=O)[C@H](CCCCN)NC(=O)[C@@H](NC(=O)[C@H](CCCCN)NC(=O)[C@@H](NC(=O)[C@H](CC(N)=O)NC(=O)[C@@H](NC(=O)[C@@H](NC(=O)[C@@H](NC(=O)CN)C(C)C)[C@@H](C)CC)[C@@H](C)CC)C(C)C)CSSC[C@@H]2NC(=O)[C@H](CCCCN)NC(=O)CNC(=O)[C@H](Cc3ccccc3)NC(=O)[C@H](CCCNC(=N)N)NC(=O)[C@H](CCSC)NC(=O)CNC(=O)[C@H](C)NC(=O)[C@H](CCCCN)NC(=O)[C@H](CCCCN)NC(=O)[C@@H]3CSSC[C@@H](C(=O)N[C@H](C(=O)N4CCC[C@H]4C(=O)N[C@@H](CCCCN)C(=O)O)[C@@H](C)O)NC(=O)[C@H](CCCNC(=N)N)NC(=O)[C@H](CSSC[C@H](NC(=O)[C@H](CCC(N)=O)NC(=O)[C@H](CCCNC(=N)N)NC(=O)[C@H](CO)NC1=O)C(=O)N[C@@H](CC(C)C)C(=O)N[C@@H](CCC(=O)O)C(=O)N1CCC[C@H]1C(=O)N3)NC(=O)[C@H](CCCCN)NC(=O)CNC(=O)[C@H](CC(N)=O)NC(=O)[C@H](CCSC)NC2=O` [H34R] (H-GVIINVKCKISRQCLEPCKKAGMRFGKCMNGKCRCTPK-OH; disulfide 8-28, 14-33, 18-35), which IC50 (human Kv1.3 (CHO)) is on record?
**A.** 13.6 pM

**Q.** And the IC50 (human Kv1.1 (HEK293))?
**A.** 4.49 pM
